Read-outs that look alike come from different tables or passages of the source.
Key:
Assay type in all cases: in vitro ADME
[1] = target: T1, CYP1A2 (Homo sapiens, UniProt P05177); test: Time-dependent inhibition of CYP1A2 in human liver microsomes; conditions: for (% Activity NADPH T0)/(% Activity NADPH T30): fold change; for activity at 30 min, 25 µM / activity at 0 min, 25 µM / activity at 30 min, 50 µM / activity at 0 min, 50 µM: pooled human liver microsomes, human liver microsomes; for activity at 30 min, 25 µM / activity at 30 min, 50 µM: after 30 minutes incubation, read-out: % Activity NADPH T30; for activity at 0 min, 25 µM / activity at 0 min, 50 µM: time zero, read-out: % Activity NADPH T0
T1 construct: Pooled human microsomes and selective CYP probe substrates were used; from tissue; host or cells: pooled human liver microsomes
T1 sequence (P05177 1-516): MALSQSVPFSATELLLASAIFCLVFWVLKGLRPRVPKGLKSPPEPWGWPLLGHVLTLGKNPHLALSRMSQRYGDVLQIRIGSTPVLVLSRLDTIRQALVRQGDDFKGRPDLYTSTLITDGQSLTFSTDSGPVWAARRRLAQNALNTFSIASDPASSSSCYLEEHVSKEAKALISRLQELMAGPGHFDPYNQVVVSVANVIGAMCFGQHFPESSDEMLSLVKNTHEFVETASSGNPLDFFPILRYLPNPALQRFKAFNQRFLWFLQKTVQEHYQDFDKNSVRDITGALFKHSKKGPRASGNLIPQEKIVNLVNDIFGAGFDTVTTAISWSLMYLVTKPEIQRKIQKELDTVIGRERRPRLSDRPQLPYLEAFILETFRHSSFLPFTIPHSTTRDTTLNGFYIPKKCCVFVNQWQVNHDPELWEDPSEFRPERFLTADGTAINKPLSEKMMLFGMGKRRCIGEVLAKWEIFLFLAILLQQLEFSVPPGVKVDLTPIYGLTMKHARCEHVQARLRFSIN
Experimental: (§1) An assessment of the time-dependent Inhibitory Potential of the test compounds against Principal Human Cytochrome P450 Isozymes using Human Liver Microsomes was also carried out using standard methods (Grimm et al, Drug Metab. Dispos., July; 37(7):1355-70. doi: 10.1124/dmd.109.026716, 2009). Pooled human microsomes and selective CYP probe substrates were used for in vitro assessment of test compounds at 25 and 50 μM as time-dependent inhibitors of […] human hepatic cytochrome P450 isozymes (CYP1A2, 2B6, 2C9, 2C19, 2D6, and 3A4). LC-MS/MS was used to quantify metabolite formation. The inhibition of each P450 enzyme in human liver microsomes was measured as the percentage decrease in the activity of marker metabolite formation as measured by LC-MS/MS compared to non-inhibited controls (=100% activity) at time zero and after 30 minutes incubation. The occurrence of any time dependent inhibition was then expressed as the fold change in enzyme activity at time zero relative to the activity after 30 minutes incubation.

[2] = target: T2, CYP2B6 (Homo sapiens, UniProt P20813); test: Time-dependent inhibition of CYP2B6 in human liver microsomes; conditions: for (% Activity NADPH T0)/(% Activity NADPH T30): fold change; for activity at 30 min, 25 µM / activity at 0 min, 25 µM / activity at 30 min, 50 µM / activity at 0 min, 50 µM: pooled human liver microsomes, human liver microsomes; for activity at 30 min, 25 µM / activity at 30 min, 50 µM: after 30 minutes incubation, read-out: % Activity NADPH T30; for activity at 0 min, 25 µM / activity at 0 min, 50 µM: time zero, read-out: % Activity NADPH T0
T2 construct: Pooled human microsomes and selective CYP probe substrates were used; from tissue; host or cells: pooled human liver microsomes
T2 sequence (P20813 1-491): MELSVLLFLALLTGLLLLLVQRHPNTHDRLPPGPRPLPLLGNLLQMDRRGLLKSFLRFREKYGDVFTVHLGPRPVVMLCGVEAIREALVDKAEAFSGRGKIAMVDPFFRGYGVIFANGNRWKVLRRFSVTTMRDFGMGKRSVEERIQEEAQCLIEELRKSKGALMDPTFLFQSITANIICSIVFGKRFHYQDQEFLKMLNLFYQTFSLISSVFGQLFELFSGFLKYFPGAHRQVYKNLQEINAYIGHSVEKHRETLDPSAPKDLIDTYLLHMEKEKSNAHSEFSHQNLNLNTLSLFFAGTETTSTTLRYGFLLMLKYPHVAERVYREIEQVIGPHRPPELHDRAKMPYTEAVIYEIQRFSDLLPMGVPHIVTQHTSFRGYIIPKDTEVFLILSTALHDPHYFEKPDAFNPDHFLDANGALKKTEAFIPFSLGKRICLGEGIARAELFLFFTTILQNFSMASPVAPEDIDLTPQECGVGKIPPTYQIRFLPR
Experimental: as §1

[3] = target: T3, CYP2C19 (Homo sapiens, UniProt P33261); test: Time-dependent inhibition of CYP2C19 in human liver microsomes; conditions: for (% Activity NADPH T0)/(% Activity NADPH T30): fold change; for activity at 30 min, 25 µM / activity at 0 min, 25 µM / activity at 30 min, 50 µM / activity at 0 min, 50 µM: pooled human liver microsomes, human liver microsomes; for activity at 30 min, 25 µM / activity at 30 min, 50 µM: after 30 minutes incubation, read-out: % Activity NADPH T30; for activity at 0 min, 25 µM / activity at 0 min, 50 µM: time zero, read-out: % Activity NADPH T0
T3 construct: Pooled human microsomes and selective CYP probe substrates were used; from tissue; host or cells: pooled human liver microsomes
Experimental: as §1

[4] = target: T4, CYP2C8 (Homo sapiens, UniProt P10632); test: Time-dependent inhibition of CYP2C8 in human liver microsomes; conditions: for (% Activity NADPH T0)/(% Activity NADPH T30): fold change; for activity at 30 min, 25 µM / activity at 0 min, 25 µM / activity at 30 min, 50 µM / activity at 0 min, 50 µM: pooled human liver microsomes, human liver microsomes; for activity at 30 min, 25 µM / activity at 30 min, 50 µM: after 30 minutes incubation, read-out: % Activity NADPH T30; for activity at 0 min, 25 µM / activity at 0 min, 50 µM: time zero, read-out: % Activity NADPH T0
T4 construct: Pooled human microsomes and selective CYP probe substrates were used; from tissue; host or cells: pooled human liver microsomes
T4 sequence (P10632 1-490): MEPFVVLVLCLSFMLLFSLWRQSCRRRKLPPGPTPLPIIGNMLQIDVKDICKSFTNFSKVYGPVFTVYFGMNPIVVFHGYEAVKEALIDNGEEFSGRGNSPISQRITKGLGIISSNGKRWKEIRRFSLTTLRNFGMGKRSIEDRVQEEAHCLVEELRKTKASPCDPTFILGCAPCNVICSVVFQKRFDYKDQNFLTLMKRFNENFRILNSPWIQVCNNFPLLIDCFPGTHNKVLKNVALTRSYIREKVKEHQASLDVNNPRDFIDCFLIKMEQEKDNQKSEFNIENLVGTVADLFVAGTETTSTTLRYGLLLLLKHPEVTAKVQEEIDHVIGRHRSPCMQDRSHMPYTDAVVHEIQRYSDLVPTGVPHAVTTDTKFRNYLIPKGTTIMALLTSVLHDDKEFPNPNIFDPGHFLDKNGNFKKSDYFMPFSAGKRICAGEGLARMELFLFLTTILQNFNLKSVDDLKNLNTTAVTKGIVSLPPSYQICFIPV
Experimental: as §1

[5] = target: T5, CYP3A4 (Homo sapiens, UniProt P08684); test: Time-dependent inhibition of CYP3A4 in human liver microsomes (testosterone and midazolam probes); conditions: for (% Activity NADPH T0)/(% Activity NADPH T30): fold change; for activity at 30 min, 25 µM / activity at 30 min, 50 µM: human, after 30 minutes incubation, read-out: % Activity NADPH T30; for activity at 30 min, 25 µM / activity at 30 min, 50 µM / activity at 0 min, 25 µM / activity at 0 min, 50 µM: pooled human liver microsomes; for activity at 0 min, 25 µM / activity at 0 min, 50 µM: human liver microsomes, time zero, read-out: % Activity NADPH T0
T5 construct: Pooled human microsomes and selective CYP probe substrates were used; from tissue; host or cells: pooled human liver microsomes
Experimental: as §1

[6] = CYP3A4-M (midazolam probe substrate), 25 μM
[7] = CYP3A4-M (midazolam probe substrate), 50 μM
[8] = CYP3A4-T (testosterone probe substrate), 25 μM
[9] = CYP3A4-T (testosterone probe substrate), 50 μM

T5 sequence (P08684 whole entry): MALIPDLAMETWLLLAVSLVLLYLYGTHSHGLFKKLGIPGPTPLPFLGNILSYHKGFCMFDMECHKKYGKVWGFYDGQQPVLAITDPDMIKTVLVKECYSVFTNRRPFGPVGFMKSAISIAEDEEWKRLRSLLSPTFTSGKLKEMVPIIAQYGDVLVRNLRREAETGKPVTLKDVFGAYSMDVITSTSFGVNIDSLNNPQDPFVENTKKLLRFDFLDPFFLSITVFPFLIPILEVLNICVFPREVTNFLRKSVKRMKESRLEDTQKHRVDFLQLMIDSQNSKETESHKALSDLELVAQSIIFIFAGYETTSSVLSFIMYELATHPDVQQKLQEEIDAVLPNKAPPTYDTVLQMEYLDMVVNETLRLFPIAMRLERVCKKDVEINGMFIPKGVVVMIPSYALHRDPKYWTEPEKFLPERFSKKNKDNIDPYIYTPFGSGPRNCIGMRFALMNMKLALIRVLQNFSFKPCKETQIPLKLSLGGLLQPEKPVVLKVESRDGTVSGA
T3 sequence (P33261 whole entry): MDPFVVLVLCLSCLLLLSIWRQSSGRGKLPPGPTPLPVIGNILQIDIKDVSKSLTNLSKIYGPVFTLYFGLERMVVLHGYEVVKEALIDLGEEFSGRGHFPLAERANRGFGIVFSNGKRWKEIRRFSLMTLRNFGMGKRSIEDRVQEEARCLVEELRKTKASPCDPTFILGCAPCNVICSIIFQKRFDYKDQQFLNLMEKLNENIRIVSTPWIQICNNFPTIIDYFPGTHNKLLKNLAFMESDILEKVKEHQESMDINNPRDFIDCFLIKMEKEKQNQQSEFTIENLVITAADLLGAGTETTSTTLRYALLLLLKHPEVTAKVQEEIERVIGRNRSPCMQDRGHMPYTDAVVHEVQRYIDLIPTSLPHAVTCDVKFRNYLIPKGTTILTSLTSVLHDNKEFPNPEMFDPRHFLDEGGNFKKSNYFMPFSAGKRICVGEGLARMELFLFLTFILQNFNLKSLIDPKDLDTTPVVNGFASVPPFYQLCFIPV

(% Activity NADPH T0)/(% Activity NADPH T30) ([1]; CYP1A2, 25 μM) | (% Activity NADPH T0)/(% Activity NADPH T30) ([1]; CYP1A2, 50 μM) | activity at 30 min, 25 µM ([1]; CYP1A2, 25 μM) [%] | activity at 0 min, 25 µM ([1]; CYP1A2, 25 μM) [%] | activity at 30 min, 50 µM ([1]; CYP1A2, 50 μM) [%] | activity at 0 min, 50 µM ([1]; CYP1A2, 50 μM) [%] | (% Activity NADPH T0)/(% Activity NADPH T30) ([2]; CYP2B6, 25 μM) | (% Activity NADPH T0)/(% Activity NADPH T30) ([2]; CYP2B6, 50 μM) | activity at 30 min, 25 µM ([2]; CYP2B6, 25 μM) [%] | activity at 0 min, 25 µM ([2]; CYP2B6, 25 μM) [%] | activity at 30 min, 50 µM ([2]; CYP2B6, 50 μM) [%] | activity at 0 min, 50 µM ([2]; CYP2B6, 50 μM) [%] | (% Activity NADPH T0)/(% Activity NADPH T30) ([3]; CYP2C19, 25 μM) | (% Activity NADPH T0)/(% Activity NADPH T30) ([3]; CYP2C19, 50 μM) | (% Activity NADPH T0)/(% Activity NADPH T30) ([4]; CYP2C8, 25 μM) | (% Activity NADPH T0)/(% Activity NADPH T30) ([4]; CYP2C8, 50 μM) | (% Activity NADPH T0)/(% Activity NADPH T30) [5, 6] | (% Activity NADPH T0)/(% Activity NADPH T30) [5, 7] | (% Activity NADPH T0)/(% Activity NADPH T30) [5, 8] | (% Activity NADPH T0)/(% Activity NADPH T30) [5, 9] | Structure (SMILES) | further results
0.9 | 0.8 | 95 | 81 | 100 | 79 | 0.9 | 1.1 | 74 | 70 | 70 | 78 | 1.0 | 1.0 | 1.1 | 1.1 | 1.0 | 1.0 | 1.0 | 1.0 | C[C@H]1CC[C@H](N2CC(=O)N(Cc3ccc(F)c(Cl)c3)C3(CN(C(N)=O)C3)C2=O)CC1 [Compound 7, 5-(3-chloro-4-fluorobenzyl)-8-((1r,4r)-4-methylcyclohexyl)-6,9-dioxo-2,5,8-triazaspiro[3.5]nonane-2-carboxamide] | activity at 30 min, 25 µM ([3]; CYP2C19, 25 μM): 87%; activity at 0 min, 25 µM ([3]; CYP2C19, 25 μM): 87%; activity at 30 min, 50 µM ([3]; CYP2C19, 50 μM): 83%; activity at 0 min, 50 µM ([3]; CYP2C19, 50 μM): 82%; activity at 30 min, 25 µM ([4]; CYP2C8, 25 μM): 64%; activity at 0 min, 25 µM ([4]; CYP2C8, 25 μM): 72%; activity at 30 min, 50 µM ([4]; CYP2C8, 50 μM): 103%; activity at 0 min, 50 µM ([4]; CYP2C8, 50 μM): 109%; activity at 30 min, 25 µM [5, 6]: 100%; activity at 30 min, 50 µM [5, 7]: 100%; activity at 30 min, 25 µM [5, 8]: 100%; activity at 30 min, 50 µM [5, 9]: 100%; activity at 0 min, 25 µM [5, 6]: 100%; activity at 0 min, 50 µM [5, 7]: 100%; activity at 0 min, 25 µM [5, 8]: 100%; activity at 0 min, 50 µM [5, 9]: 100%
1.1 | 1.0 |  |  |  |  | 1.1 | 1.0 |  |  |  |  | 1.4 | 1.1 | 1.0 | 1.2 | 0.8 | 0.7 | 0.9 | 0.8 | C[C@H]1CC[C@H](N2CC(=O)N(Cc3ccc(F)c(F)c3)C3(CN(C=O)C3)C2=O)CC1 [Compound 4, 5-(3,4-difluorobenzyl)-8-((1r,4r)-4-methylcyclohexyl)-6,9-dioxo-2,5,8-triazaspiro[3.5]nonane-2-carbaldehyde] | (% Activity NADPH T0)/(% Activity NADPH T30) ([3]; CYP2C19, 50 μM, listed as compound 4): no change in activity
0.9 | 0.9 | 96 | 82 | 101 | 86 | 0.9 | 0.9 | 97 | 83 | 100 | 88 | 0.9 | 1.0 | 1.0 | 1.0 | 1.0 | 1.0 | 1.0 | 1.0 | CC(C)N1CC(=O)N(Cc2ccc(Cl)c(F)c2)C2(CN(c3cccnn3)C2)C1=O [Compound 8, 5-(4-chloro-3-fluorobenzyl)-8-isopropyl-2-(pyridazin-3-yl)-2,5,8-triazaspiro[3.5]nonane-6,9-dione] | activity at 30 min, 25 µM ([3]; CYP2C19, 25 μM): 99%; activity at 0 min, 25 µM ([3]; CYP2C19, 25 μM): 94%; activity at 30 min, 50 µM ([3]; CYP2C19, 50 μM): 92%; activity at 0 min, 50 µM ([3]; CYP2C19, 50 μM): 93%; activity at 30 min, 25 µM ([4]; CYP2C8, 25 μM): 117%; activity at 0 min, 25 µM ([4]; CYP2C8, 25 μM): 117%; activity at 30 min, 50 µM ([4]; CYP2C8, 50 μM): 112%; activity at 0 min, 50 µM ([4]; CYP2C8, 50 μM): 110%; activity at 30 min, 25 µM [5, 6]: 100%; activity at 30 min, 50 µM [5, 7]: 100%; activity at 30 min, 25 µM [5, 8]: 100%; activity at 30 min, 50 µM [5, 9]: 100%; activity at 0 min, 25 µM [5, 6]: 100%; activity at 0 min, 50 µM [5, 7]: 100%; activity at 0 min, 25 µM [5, 8]: 100%; activity at 0 min, 50 µM [5, 9]: 100%

— patent US12286437B2, “Cardiac sarcomere inhibitors” (Cytokinetics, Inc., priority 2021, dated 2025)
